Here are results for 29 molecules from patent US4997847A, “Biologically active compounds” (Smith Kline & French Laboratories Limited, priority 1987, dated 1991).

pIC50: −log10 of the molar value.

For this test, the target named is T1, TXA2 receptors (Homo sapiens, UniProt P21731).
T1 construct: to Washed Human Platelets; endogenous in cells; host or cells: washed human platelets
T1 sequence (P21731 1-343): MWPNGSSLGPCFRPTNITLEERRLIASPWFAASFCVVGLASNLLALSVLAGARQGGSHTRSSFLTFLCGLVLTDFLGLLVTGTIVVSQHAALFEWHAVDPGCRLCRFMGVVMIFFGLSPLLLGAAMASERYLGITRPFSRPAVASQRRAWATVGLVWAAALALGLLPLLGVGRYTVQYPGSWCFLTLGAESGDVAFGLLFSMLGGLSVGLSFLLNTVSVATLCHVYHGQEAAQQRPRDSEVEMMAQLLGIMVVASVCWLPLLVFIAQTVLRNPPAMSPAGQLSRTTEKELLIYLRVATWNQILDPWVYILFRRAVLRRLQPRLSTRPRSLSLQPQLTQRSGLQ
Nature of the test: Human platelet binding assay: inhibition of [^125 I]PTA-OH binding to washed human platelets. The note with it: [^125 I]PTA-OH as receptor ligand, 50% inhibition of specific binding. An excerpt:
As indicated above, compounds of the formula (I) have biological activity that is indicative of an ability to antagonise TXA2 receptors.
The platelet binding assay used was essentially the method described by Mais et al, J. Pharm. Exp. Ther., 1985, 235(3), 729-734 where [^125 I]PTA-OH was used as the receptor ligand.
The IC50 values represent the concentration which produces a 50% inhibition of specific [^125 I]PTA-OH binding.
The activities of the compounds of the present invention in the assay are described in Example 33.
Inhibition of [^125 I]PTA-OH Binding
to Washed Human Platelets
`O=C(O)CCCCCCNS(=O)(=O)c1ccccc1` [Example 1, 7-(Benzenesulphonamido)heptanoic Acid]: the pIC50 was 5.64.

As for `O=C(O)CCCCCCCNS(=O)(=O)c1ccccc1` [Example 2, 8-(Benzenesulphonamido)octanoic Acid], the pIC50 was 6.54.

The molecule `O=C(O)CCCCCCCNS(=O)(=O)c1ccc(Cl)cc1` [Example 3, 8-(4-Chlorobenzenesulphonamido)octanoic Acid] showed a pIC50 of 7.52.

The molecule `O=C(O)CCCCCNS(=O)(=O)c1ccccc1` [Example 4, 6-(Benzenesulphonamido)hexanoic Acid] gave a pIC50 of 4.21.

Molecule `CC(C)(CCCCCCNS(=O)(=O)c1ccc(Cl)cc1)C(=O)O` [Example 5, 8-(4-Chlorobenzenesulphonamido)-2,2-dimethyloctanoic Acid] showed a pIC50 of 6.82.

`O=C(O)CCCCCCCCNS(=O)(=O)c1ccc(Cl)cc1` [Example 6, 9-(4-Chlorobenzenesulphonamido)nonanoic Acid]: the pIC50 is 7.74.

With `O=C(O)CCCCCCCCNS(=O)(=O)c1ccccc1` [Example 7, 9-(Benzenesulphonamido)nonanoic Acid], the pIC50 is 6.55.

In turn, `O=C(O)CCCC#CCNS(=O)(=O)c1ccc(Cl)cc1` [Example 8, 7-(4-Chlorobenzenesulphonamido)hept-5-ynoic Acid] gave a negative logarithm of the IC50 (pIC50) of 5.27.

For `O=C(O)CCC/C=C\CNS(=O)(=O)c1ccc(Cl)cc1` [Example 9, (Z)-7-(4-Chlorobenzenesulphonamido)hept-5-enoic Acid], the pIC50 was 5.80.

Turning to `CC(C)(CCCCCCCCNS(=O)(=O)c1ccc(Cl)cc1)C(=O)O` [Example 10, 2,2-Dimethyl-10-(4-chlorobenzenesulphonamido)decanoic Acid], the pIC50 was 6.33.

In the case of `O=C(O)CCCCCCCCCCCNS(=O)(=O)c1ccc(Cl)cc1` [Example 11, 12-(4-Chlorobenzenesulphonamido)-dedecanoic Acid], the pIC50 is 5.15.

The molecule `CC(C)(CCCCCNS(=O)(=O)c1ccc(Cl)cc1)CC(=O)O` [Example 12, 8-(4-Chlorobenzenesulphonamido)-3,3-dimethyloctanoic Acid] gave a pIC50 of 6.22.

The molecule `O=C(O)CCCCCCNS(=O)(=O)c1ccc(Cl)cc1` [Example 13, 7-(4-Chlorobenzenesulphonamido)heptanoic Acid] showed a pIC50 of 6.57.

Take `O=C(O)CCCCCCCNS(=O)(=O)c1cccc(Cl)c1` [Example 14, 8-(3-Chlorobenzenesulphonamido)octanoic Acid]: the pIC50 was 6.80.

Regarding `O=C(O)CCCCCCCNS(=O)(=O)c1ccc([N+](=O)[O-])cc1` [Example 15, 8-(4-Nitrobenzenesulphonamido)octanoic Acid], the pIC50 is 6.96.

The molecule `O=C(O)CCCCCCCNS(=O)(=O)c1ccc(Br)cc1` [Example 16, 8-(4-Bromobenzenesulphonamido)octanoic Acid] showed a pIC50 of 7.70.

`COc1ccc(S(=O)(=O)NCCCCCCCC(=O)O)cc1` [Example 17, 8-(4-Methoxybenzenesulphonamido)octanoic Acid]: the pIC50 was 6.52.

Consider `O=C(O)CCCCCCCNS(=O)(=O)c1ccc(Cl)c(Cl)c1` [Example 18, 8-(3,4-Dichlorobenzenesulphonamido)octanoic Acid], for which the pIC50 was 7.15.

In the case of `O=C(O)CCCCCCCCCCNS(=O)(=O)c1ccc(Cl)cc1` [Example 19, 11-(4-Chlorobenzenesulphonamido)undecanoic Acid], the pIC50 is 6.22.

Take `O=C(O)CCCCCCCCCCNS(=O)(=O)c1cccc(Cl)c1` [Example 20, 11-(3-Chlorobenzenesulphonamido)undecanoic Acid]: the pIC50 is 5.72.

`Cc1ccc(S(=O)(=O)NCCCCCCCC(=O)O)cc1` [Example 21, 8-(4-tolylsulphonamido)octanoic acid] had a pIC50 of 7.12.

The molecule `O=C(O)CCCCCCCCNS(=O)(=O)c1cccc(Cl)c1` [Example 23, 9-(3-Chlorobenzenesulphonamido)nonanoic Acid] showed a pIC50 of 6.60.

`O=C(O)CCCCCCCCCNS(=O)(=O)c1ccc(Cl)cc1` [Example 24, 10-(4-Chlorobenzenesulphonamido)decanoic Acid] showed a pIC50 of 7.22.

As to `O=C(O)CCCCCCCNS(=O)(=O)c1ccc(F)cc1` [Example 25, 8(4-Fluorobenzenesulphonamido)octanoic Acid], the pIC50 is 6.66.

Molecule `O=C(O)CCCCCCCCNS(=O)(=O)c1ccc(Br)cc1` [Example 26, 9-(4-Bromobenzenesulphonamido)nonanoic Acid] gave a pIC50 of 7.40.

`O=C(O)CCCCCCCNS(=O)(=O)c1ccc(Cl)s1` [Example 29, 8-(5-Chloro-2-thienylsulphonamido)octanoic Acid] gave a pIC50 of 7.40.

For the molecule `CC(C)(CCCCCCCNS(=O)(=O)c1ccc(Cl)cc1)C(=O)O` [Example 30, 9-(4-Chlorophenylsulphonamido)-2,2-dimethylnonanoic Acid], the pIC50 was 6.44.

On to `CC(C)(CCCCCNS(=O)(=O)c1ccc(Cl)cc1)C(=O)O` [Example 31, 7-(4-Chlorophenylsulphonamido)-2,2-dimethylheptanoic Acid], for which the pIC50 is 6.48.

Regarding `O=C(O)CCCCCCCNS(=O)(=O)c1cc(Cl)sc1Cl` [Example 32, 8-(2,5-Dichloro-3-thienylsulphonamido)octanoic Acid], the pIC50 was 6.19.
